According to ChEMBL document CHEMBL1201862, “PubChem BioAssay data set” (2004):
Active and inactive are the calls of the source.

Experiments:
[1] = target: SWI/SNF-related matrix-associated actin-dependent regulator of chromatin subfamily A member 2 (Homo sapiens, UniProt P51531); assay: Luminescence-based cell-based high throughput dose response assay to identify activators of the function of SWI/SNF related, matrix associated, actin dependent regulator of chromatin, subfamily a, member 2 (SMARCA2, BRM).; type: functional
Chain of SWI/SNF-related matrix-associated actin-dependent regulator of chromatin subfamily A member 2 (P51531 whole entry): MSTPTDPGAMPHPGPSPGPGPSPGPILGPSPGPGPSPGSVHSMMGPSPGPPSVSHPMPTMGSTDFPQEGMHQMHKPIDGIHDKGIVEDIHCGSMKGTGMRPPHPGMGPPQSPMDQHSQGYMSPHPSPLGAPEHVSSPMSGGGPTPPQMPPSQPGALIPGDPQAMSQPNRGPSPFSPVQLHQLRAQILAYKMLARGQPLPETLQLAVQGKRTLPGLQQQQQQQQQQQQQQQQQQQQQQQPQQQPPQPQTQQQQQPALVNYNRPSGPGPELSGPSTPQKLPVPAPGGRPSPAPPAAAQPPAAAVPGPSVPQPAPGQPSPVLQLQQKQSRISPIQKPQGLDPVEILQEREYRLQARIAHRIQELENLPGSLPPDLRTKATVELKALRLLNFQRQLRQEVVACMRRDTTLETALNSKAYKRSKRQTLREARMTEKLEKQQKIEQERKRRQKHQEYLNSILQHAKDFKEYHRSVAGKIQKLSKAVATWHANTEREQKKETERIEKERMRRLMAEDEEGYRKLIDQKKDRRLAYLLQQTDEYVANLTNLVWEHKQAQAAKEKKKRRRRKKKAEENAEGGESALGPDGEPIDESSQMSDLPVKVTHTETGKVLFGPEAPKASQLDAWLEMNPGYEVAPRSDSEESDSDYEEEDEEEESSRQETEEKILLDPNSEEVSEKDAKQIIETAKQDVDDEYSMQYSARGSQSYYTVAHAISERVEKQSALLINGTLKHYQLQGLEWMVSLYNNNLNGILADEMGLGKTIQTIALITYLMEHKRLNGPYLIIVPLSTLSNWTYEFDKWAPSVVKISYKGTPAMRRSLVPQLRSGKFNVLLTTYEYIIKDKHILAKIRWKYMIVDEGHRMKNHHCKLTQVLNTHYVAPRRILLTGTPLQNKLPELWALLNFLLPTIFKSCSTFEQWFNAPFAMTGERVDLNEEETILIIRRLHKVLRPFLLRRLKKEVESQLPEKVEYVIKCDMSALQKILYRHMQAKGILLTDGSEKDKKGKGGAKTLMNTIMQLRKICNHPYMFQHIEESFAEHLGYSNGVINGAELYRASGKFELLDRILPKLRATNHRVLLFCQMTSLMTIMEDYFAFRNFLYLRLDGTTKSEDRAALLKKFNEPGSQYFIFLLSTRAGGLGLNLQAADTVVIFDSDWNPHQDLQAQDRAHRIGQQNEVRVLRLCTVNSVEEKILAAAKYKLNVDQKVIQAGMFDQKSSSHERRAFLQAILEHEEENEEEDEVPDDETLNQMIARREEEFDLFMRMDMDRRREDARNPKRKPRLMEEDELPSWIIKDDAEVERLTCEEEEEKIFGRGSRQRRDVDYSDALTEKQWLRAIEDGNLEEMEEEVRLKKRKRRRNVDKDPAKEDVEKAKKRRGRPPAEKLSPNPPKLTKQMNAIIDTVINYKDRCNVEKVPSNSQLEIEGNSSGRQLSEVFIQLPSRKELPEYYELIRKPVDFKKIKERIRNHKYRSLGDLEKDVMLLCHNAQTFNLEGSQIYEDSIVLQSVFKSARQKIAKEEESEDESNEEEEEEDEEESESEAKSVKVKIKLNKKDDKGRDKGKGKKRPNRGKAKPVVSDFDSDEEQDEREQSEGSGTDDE

[2] = Counterscreen for activators of the function of SWI/SNF related, matrix associated, actin dependent regulator of chromatin, subfamily a, member 2 (SMARCA2, BRM): Luminescence-based cell-based high throughput dose response assay to identify non-selective compounds using the VP16 reporter assay.; type: functional
[3] = NIH-3T3 fibroblast cytotoxicity, dose response, cytotoxicity control, cell-based, fluorescence, Alamar Blue, secondary assay (AID 2327); type: functional;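 note: NIH-3T3 mouse fibroblasts cultured with fluconazole at 8 µg/mL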
[4] = C. albicans growth with fluconazole, confirmation, fluorescence, retest (AID 2467); type: functional, cell-based
[5] = non-specific cell cytotoxicity, dose response, cytotoxicity control for PAX8 inhibitor project, plate reader, dry powder samples (AID 743021); type: functional, cell-based
[6] = control 3'UTR Renilla luciferase suppression, dose response, counter-screen for Shn3 inhibitor project, cell-based, Clone20-Shn3RL, cherry-picked (AID 624133); type: functional
[7] = target: Paired box protein Pax-8 (Homo sapiens, UniProt Q06710); assay: inhibitors of PAX8-driven TPO luciferase reporter, dose response, RMG-I cells, cherry-pick (AID 687027); type: functional, cell-based;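 note: luciferase reporter driven by Pax8 target thyroperoxidase promoter measured by SteadyGlo luminescence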
Chain of Paired box protein Pax-8 (Q06710 whole entry): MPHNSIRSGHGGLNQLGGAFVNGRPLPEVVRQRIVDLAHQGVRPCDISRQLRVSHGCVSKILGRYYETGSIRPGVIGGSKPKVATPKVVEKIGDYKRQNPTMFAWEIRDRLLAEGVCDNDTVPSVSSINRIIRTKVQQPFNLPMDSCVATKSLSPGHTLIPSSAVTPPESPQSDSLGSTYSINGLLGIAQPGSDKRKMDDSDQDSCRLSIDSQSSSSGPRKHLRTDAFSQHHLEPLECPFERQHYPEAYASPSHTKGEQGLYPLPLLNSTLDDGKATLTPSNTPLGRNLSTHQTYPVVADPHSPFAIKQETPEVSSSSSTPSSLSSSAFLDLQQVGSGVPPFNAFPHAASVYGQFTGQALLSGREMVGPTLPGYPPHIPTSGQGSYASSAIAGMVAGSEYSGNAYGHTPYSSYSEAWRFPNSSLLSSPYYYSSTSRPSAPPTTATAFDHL

[8] = target: Beta Lactamase (Pseudomonas aeruginosa, UniProt Q932Y6); assay: beta-lactamase reporter inhibitor potency, dose response, artefact control for NOD2-RIPK2 interaction inhibitor project, BLA reporter cells, FRET fluorescence (AID 651552); type: functional, cell-based
Chain of Beta Lactamase (Q932Y6 whole entry, the tested form may be a part): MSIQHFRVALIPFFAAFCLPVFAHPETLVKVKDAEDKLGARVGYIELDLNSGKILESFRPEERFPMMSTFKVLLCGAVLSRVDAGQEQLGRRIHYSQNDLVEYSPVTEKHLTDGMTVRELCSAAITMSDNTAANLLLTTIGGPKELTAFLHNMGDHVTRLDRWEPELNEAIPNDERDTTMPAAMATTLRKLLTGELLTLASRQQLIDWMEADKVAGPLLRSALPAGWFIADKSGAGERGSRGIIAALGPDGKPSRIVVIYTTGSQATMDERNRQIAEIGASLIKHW

[9] = Fluorescence-based cell-based high throughput dose response assay for inhibitors of the interaction of nucleotide-binding oligomerization domain containing 2 (NOD2) and the receptor-interacting serine-threonine kinase 2 (RIPK2).; type: functional; conditions: Homo sapiens
[10] = HepG2 cell cytotoxicity, dose response, cytotoxicity control for Shn3 inhibitor project, CellTiter-Glo, cherry-picked (AID 624134); type: functional, cell-based
[11] = Shn3 3'UTR reporter inhibitors, dose response, cell-based, Clone20 osteoblasts, firefly luciferase, cherry-picked (AID 624132); type: functional;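 note: firefly luciferase luminescence from reporter carrying the Shn3 3'UTR in osteoblasts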
[12] = target: T1, NAD-dependent protein deacylase sirtuin-5, mitochondrial (Homo sapiens, UniProt Q9NXA8); assay: SIRT5 desuccinylase inhibitors, dose response, biochemical, fluorescence imaging, cherry-pick, set 5 (AID 720591);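 note: desuccinylation of succinyl peptide AMC substrate read as fluorescence after trypsin release; potency of inhibitors that lower fluorescence and may act on trypsin instead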
T1 sequence (Q9NXA8 whole entry): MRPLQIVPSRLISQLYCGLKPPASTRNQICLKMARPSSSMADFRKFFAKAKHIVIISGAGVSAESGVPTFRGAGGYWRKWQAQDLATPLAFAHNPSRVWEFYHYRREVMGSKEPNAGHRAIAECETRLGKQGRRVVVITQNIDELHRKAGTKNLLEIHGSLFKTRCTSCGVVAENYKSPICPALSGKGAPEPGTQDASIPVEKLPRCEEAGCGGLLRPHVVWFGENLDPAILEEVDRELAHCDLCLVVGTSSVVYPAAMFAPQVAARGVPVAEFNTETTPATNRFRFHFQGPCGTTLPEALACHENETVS

[13] = intracellular Trypanosoma cruzi inhibitors in host cells – cell-based, plate reader, cherry-pick samples, set 3, dose response (AID 651818); type: functional;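 note: compounds incubated with infected cells for about four days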
[14] = target: Disintegrin and metalloproteinase domain-containing protein 17 (Homo sapiens, UniProt P78536); assay: ADAM17 protease inhibitors, dose response, counter-screen for ADAM10 exosite inhibitor project, biochemical, quenched FRET substrate (AID 743253)
Chain of Disintegrin and metalloproteinase domain-containing protein 17 (P78536 whole entry, the tested form may be a part): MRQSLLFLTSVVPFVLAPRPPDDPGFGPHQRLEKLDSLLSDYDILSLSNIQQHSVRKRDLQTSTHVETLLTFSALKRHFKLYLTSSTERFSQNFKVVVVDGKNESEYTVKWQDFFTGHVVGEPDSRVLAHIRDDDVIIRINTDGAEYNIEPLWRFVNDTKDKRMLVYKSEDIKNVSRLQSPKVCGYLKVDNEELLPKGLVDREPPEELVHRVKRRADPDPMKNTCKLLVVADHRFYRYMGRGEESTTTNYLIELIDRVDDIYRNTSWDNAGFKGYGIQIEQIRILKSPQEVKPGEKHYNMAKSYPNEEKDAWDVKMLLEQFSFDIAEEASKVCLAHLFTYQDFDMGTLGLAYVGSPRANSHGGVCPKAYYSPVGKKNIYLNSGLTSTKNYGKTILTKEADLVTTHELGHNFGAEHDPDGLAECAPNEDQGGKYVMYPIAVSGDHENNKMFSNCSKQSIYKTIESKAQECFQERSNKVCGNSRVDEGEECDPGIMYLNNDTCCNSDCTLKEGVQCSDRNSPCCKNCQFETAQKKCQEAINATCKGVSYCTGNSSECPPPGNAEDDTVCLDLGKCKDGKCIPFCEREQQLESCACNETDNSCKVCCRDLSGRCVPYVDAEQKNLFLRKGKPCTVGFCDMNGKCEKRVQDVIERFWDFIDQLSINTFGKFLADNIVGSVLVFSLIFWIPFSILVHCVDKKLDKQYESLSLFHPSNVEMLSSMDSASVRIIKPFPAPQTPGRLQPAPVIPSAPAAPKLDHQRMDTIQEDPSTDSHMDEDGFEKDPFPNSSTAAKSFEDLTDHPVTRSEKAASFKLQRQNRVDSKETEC

[15] = ADAM10 inhibitors, peptide cleavage, dose response, biochemical, QFRET (AID 743254);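 note: ADAM10 enzyme with the DM2 quenched FRET peptide as substrate; EDANS fluorescence gain as the protease cuts the substrate; inhibitor potency against ADAM10 proteolytic activity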
[16] = HEK293 cell cytotoxicity, dose response, cytotoxicity control, dry powder samples (AID 720567); type: functional, cell-based
[17] = Luminescence Cell-Based Dose Response HTS to Identify Inhibitors of 5'UTR Stem-Loop Driven Prion Protein mRNA Translation in H4 Neuroglioblastoma Cells. [Related pubchem assays: 1827 (Project Summary), 1813 (Primary HTS)]; type: functional
[18] = cells; type: functional, cell-based
[19] = inhibitors of SNCA 5'UTR-driven reporter translation, confirmation, H4 neuroglioma cells, luminescence (AID 1988); type: functional, cell-based
[20] = inhibitors of SNCA 5'UTR-driven translation, confirmation, luminescence, H4 neuroglioblastoma cells, dose confirmation (AID 2454); type: functional, cell-based;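 note: H4 neuroglioblastoma cells carrying an alpha-synuclein 5'UTR luciferase reporter; potency for inhibition of the luciferase signal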
[21] = luciferase reporter signal reduction – luminescence, H4-C neuroglioblastoma cells, dose response (AID 2458); type: functional, cell-based;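 note: H4 neuroglioblastoma cells stably carrying a luciferase reporter gene fusion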
[22] = inhibitors of firefly luciferase expression or activity, dose response, H4 neuroglioma cells, luminescence (AID 1990); type: functional, cell-based
[23] = miR-122 activators in hepatoma reporter cells, dose response, cell-based, Huh7 psiCHECK-miR122, Renilla luciferase, cherry-picked (AID 651956); type: functional;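 note: huh7 hepatoma cells stably carrying a psiCHECK-2 miR-122 sensor plasmid; renilla luciferase signal reporting endogenous miR-122 activity after 48 h compound exposure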
[24] = target: T2, Oxysterols receptor LXR-beta (Homo sapiens, UniProt P55055); type: functional, cell-based;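 note: Cell-based luminescence dose-response assay of agonist activity at LXR, run as a confirmatory counterscreen to a daf-12 agonist screen; HEK293 cells with Gal4-LXR fusion and GAL4-driven luciferase reporter; agonist potency from rising luciferase signal of a Gal4-LXR reporter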
T2 sequence (P55055 whole entry): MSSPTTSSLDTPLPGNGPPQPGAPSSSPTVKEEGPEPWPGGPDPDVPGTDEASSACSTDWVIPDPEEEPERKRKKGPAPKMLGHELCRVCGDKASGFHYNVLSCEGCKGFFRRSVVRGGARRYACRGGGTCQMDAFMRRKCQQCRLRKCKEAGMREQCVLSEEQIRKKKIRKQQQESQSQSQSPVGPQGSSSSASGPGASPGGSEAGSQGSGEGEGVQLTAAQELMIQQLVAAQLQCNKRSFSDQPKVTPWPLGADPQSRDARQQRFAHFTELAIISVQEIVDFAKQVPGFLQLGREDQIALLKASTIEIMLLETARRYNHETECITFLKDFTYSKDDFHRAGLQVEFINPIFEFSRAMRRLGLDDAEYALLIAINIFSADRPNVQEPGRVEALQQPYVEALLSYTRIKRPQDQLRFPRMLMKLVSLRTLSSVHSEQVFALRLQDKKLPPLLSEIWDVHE

[25] = cells
[26] = NIH:OVCAR-3 ovarian cancer cell cytotoxicity, dose response, PAX8 inhibitor project, plate reader, dry powder samples (AID 743044); type: functional, cell-based
[27] = IOSE-T80 ovarian epithelial cell cytotoxicity, dose response, cytotoxicity control for PAX8 inhibitor project, plate reader, dry powder samples (AID 743045); type: functional, cell-based
[28] = cytotoxicity in OVCAR8 ovarian cancer cells, dose response, PAX8 project, cell-based, plate reader, dry powder samples (AID 743197); type: functional; conditions: OVCAR-8
[29] = A2780 ovarian cancer cell cytotoxicity, dose response, cytotoxicity control, plate reader, dry powder samples (AID 743046); type: functional, cell-based
[30] = IGROV1 ovarian cancer cell cytotoxicity, dose response, PAX8 inhibitor project, plate reader, dry powder samples (AID 743043); type: functional, cell-based; conditions: IGROV-1
[31] = target: T1, NAD-dependent protein deacylase sirtuin-5, mitochondrial; assay: SIRT5 deacylase inhibitors, dose response, biochemical, fluorescence imaging, cherry-pick, set 6 (AID 720597)
[32] = A375 melanoma cell viability loss, dose response, counter-screen for MITF inhibitor project, CellTiter-Glo luminescence, dry powder, set 4 (AID 624364); type: functional, cell-based; conditions: A-375;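 note: A375 melanoma cells are MITF independent so this is a counter screen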
[33] = A375 melanoma cell cytotoxicity, dose response, counter-screen for MITF inhibitor project, CellTiter-Glo luminescence, dry powder, set 2 (AID 624489); type: functional, cell-based; conditions: A-375;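 note: actives are compounds lowering A375 viability meaning general cytotoxicity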

## COc1ccc(NC(=O)c2ccc([N+](=O)[O-])o2)cc1
[1]
  EC50: > 91.1 µM (inactive)
[2]
  EC50: > 91.1 µM (inactive)
[3]
  EC50: 28.2 µM (active)
[4]
  EC50: 3.55 µM (active)

## C=C1C(=O)[C@]23C[C@H]1CCC2[C@@]1(C)C(C[C@@H]3O)[C@](C)(C(=O)OC)CC[C@@H]1O (some centres not stated)
[5]
  AC50: 38.2 µM (active)
[6]
  AC50: 7.06 µM (active)
[7]
  AC50: 1.71 µM (active)
[8]
  IC50: 24.2 µM (inactive)
[9]
  IC50: 2.3 µM (active)
[10]
  AC50: 15.8 µM (active)
[11]
  AC50: 2.58 µM (active)

## COc1ccc(CC(=O)Nc2ccc(S(=O)(=O)N3CCN(C)CC3)cc2)cc1
[12]
  AC50: > 30 µM (inactive)

## C[C@@H]1CCCCO[C@H](CN(C)S(=O)(=O)c2ccc(F)cc2)[C@@H](C)CN([C@H](C)CO)C(=O)c2cc(NC(=O)Nc3ccc(C(F)(F)F)cc3)ccc2O1
[13]
  AC50: 3.61 µM (active)
[14]
  IC50: > 69.5 µM (inactive)
[15]
  IC50: > 69.5 µM (inactive)

## O=C(N/N=C/c1ccc(Cl)cc1)c1sccc1OCc1ccc(F)cc1
[16]
  AC50: 22.3 µM (active)
[17]
  EC50: < 0.1 µM (active)
[18]
  EC50: 1.3 µM (active)
[19]
  EC50: < 0.1 µM (active)
[20]
  EC50: > 3.8 µM (not active)
[21]
  EC50: 0.889 µM (active)
[22]
  EC50: 10.2 µM (active)

## CO[C@H]1CN(C)C(=O)c2ccc(NC(C)=O)cc2OC[C@@H](C)N(C(=O)CC2CC2)C[C@H]1C
[23]
  AC50: 49.6 µM (active)

## N=C(NC(=S)Nc1ccc2c(c1)OCO2)c1ccccc1
[24]
  EC50: > 67.5 µM (inactive)
[25]
  EC50: > 67.5 µM (inactive)

## O=C(C[C@@H]1C[C@H]2c3cc(NS(=O)(=O)c4ccc(F)cc4)ccc3O[C@H]2[C@H](CO)O1)NCc1ccc(-c2ccccc2)cc1
[26]
  AC50: 9.15 µM (active)
[7]
  AC50: 3.44 µM (active)
[27]
  AC50: 17.6 µM (active)
[28]
  AC50: 14.8 µM (active)
[29]
  AC50: 10.6 µM (active)
[30]
  AC50: 14.6 µM (active)
[31]
  AC50: > 30 µM (inactive)

## CO[C@@H]1CN(C)C(=O)c2cc(NC(=O)c3ccc(-c4ccccc4)cc3)ccc2OC[C@H](C)NC[C@H]1C
[5]
  AC50: 40.4 µM (active)
[26]
  AC50: 42.2 µM (active)
[7]
  AC50: 25.3 µM (active)
[29]
  AC50: 37.2 µM (active)

## CCN1CCN(C2=C(N(C)C(C)=O)C(=O)c3ccccc3C2=O)CC1
[32]
  AC50: 12.4 µM (active)
[33]
  AC50: 6.2 µM (active)

## O=C1C(NS(=O)(=O)c2ccc(Br)s2)=C(N2CCSCC2)C(=O)c2ccccc21
[32]
  AC50: > 70 µM (inactive)
[33]
  AC50: > 70 µM (inactive)

## O=S1(=O)N[C@@H](Cc2ccccc2)COc2cccc(N3CCCC3)c21
[12]
  AC50: > 30 µM (inactive)

## COc1ccc(NC(=O)N(C)C[C@H]2Oc3ccc(NS(=O)(=O)c4ccc(F)cc4)cc3C(=O)N([C@@H](C)CO)C[C@H]2C)cc1
[31]
  AC50: > 30 µM (inactive)
